Reference: patent publication US8697739B2, “Bicyclic acetyl-CoA carboxylase inhibitors and uses thereof” (Novartis AG, priority 2010, dated 2014)

These compounds were tested against T1, human acetyl-CoA carboxylase 2 (ACC2) (Homo sapiens, UniProt O00763) (assay: Acetyl-CoA carboxylase enzyme assay (malonyl-CoA formation by LC/MS/MS)). Conditions: recombinant human ACC2 (aa 144-2458); read-out: IC50 ACC2.
T1 construct: The cDNA encoding amino acids 144 to 2458 of human acetyl-CoA carboxylase 2; made in house; host or cells: Sf9 insect cells (baculovirus, pFastBac1)
T1 sequence (O00763 144-2458): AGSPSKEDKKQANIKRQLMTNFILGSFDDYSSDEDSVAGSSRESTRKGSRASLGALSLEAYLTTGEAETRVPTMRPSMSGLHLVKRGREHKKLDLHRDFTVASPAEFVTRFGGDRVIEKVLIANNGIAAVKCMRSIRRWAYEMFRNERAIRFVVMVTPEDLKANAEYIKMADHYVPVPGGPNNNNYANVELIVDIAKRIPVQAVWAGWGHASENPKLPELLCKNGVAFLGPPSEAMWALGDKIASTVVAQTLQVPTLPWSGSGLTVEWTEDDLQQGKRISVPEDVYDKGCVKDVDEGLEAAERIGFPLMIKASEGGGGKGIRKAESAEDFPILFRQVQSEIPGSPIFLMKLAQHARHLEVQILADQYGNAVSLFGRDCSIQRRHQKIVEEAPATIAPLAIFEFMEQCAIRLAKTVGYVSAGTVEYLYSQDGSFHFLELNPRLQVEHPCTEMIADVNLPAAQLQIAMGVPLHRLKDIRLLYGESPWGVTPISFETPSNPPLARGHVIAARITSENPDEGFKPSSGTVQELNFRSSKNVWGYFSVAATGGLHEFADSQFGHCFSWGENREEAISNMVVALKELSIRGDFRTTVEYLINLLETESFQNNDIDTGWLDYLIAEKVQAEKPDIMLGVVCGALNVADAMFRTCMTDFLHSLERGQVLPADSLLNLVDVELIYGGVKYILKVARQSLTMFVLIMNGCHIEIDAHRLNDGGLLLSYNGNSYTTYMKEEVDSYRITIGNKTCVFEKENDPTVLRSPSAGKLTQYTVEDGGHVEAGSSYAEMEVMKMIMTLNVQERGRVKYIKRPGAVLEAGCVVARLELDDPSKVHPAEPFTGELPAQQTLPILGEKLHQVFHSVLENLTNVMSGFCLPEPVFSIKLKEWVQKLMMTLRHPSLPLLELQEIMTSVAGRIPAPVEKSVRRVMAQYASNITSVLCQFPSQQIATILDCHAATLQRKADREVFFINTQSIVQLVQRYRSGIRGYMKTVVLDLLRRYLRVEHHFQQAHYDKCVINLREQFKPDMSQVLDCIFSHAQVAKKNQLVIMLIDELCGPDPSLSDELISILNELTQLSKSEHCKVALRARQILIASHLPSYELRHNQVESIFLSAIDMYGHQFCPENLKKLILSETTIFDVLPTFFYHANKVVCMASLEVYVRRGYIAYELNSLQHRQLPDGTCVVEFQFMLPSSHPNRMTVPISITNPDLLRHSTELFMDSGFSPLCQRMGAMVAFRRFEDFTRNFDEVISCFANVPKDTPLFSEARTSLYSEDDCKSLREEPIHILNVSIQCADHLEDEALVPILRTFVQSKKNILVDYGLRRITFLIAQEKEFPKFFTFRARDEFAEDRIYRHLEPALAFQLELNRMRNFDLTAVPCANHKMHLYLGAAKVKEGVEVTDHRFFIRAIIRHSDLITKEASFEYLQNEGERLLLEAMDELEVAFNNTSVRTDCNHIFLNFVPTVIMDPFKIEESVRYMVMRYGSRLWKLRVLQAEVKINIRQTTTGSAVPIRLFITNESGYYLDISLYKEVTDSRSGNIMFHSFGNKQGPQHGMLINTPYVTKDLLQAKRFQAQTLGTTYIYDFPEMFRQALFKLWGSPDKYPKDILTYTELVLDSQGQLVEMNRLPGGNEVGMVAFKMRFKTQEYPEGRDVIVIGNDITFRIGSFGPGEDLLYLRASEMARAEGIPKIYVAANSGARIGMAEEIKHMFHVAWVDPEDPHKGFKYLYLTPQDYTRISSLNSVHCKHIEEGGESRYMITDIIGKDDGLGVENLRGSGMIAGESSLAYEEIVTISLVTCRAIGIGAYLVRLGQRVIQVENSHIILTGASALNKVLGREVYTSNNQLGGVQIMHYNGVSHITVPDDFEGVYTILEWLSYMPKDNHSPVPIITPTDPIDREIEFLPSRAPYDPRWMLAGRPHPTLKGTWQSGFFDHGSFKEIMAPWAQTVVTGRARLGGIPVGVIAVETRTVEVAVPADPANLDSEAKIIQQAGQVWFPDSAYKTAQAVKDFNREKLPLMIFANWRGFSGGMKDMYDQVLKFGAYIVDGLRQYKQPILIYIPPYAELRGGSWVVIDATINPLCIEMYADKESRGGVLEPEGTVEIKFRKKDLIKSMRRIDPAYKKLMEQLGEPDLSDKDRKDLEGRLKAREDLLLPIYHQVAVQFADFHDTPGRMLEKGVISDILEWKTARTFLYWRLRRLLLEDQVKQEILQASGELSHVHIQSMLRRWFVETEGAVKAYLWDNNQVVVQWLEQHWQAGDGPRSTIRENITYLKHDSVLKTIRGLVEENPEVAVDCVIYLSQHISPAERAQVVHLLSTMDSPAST
Assay type: biochemical
Summary of the method: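 Malonyl-CoA formation was read by LC/MS/MS MRM against a [13C3]-malonyl-CoA internal standard, after acetic acid quench. The enzyme was baculovirus/Sf9-expressed human ACC2 residues 144–2458, given 15 minutes room-temperature compound preincubation in HEPES pH 7.5 buffer with MgCl2, citrate and DTT. Substrate solution held 50 μM acetyl-CoA, 120 μM ATP and 2 mM KHCO3.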

Row | IC50 | Compound
1 | 75 nM | Cn1c(C2CC2)c(Cl)c2ccc(S(=O)(=O)N[C@H]3CC[C@H](C(=O)N4CCN[C@@H](C(F)(F)F)C4)CC3)cc21 [Example 362, 3-chloro-2-cyclopropyl-1-methyl-N-((1R,4r)-4-((R)-3-(trifluoromethyl)piperazine-1-carbonyl)cyclohexyl)-1H-indole-6-sulfonamide]
2 | 120 nM | Cn1c(C2CC2)c(Cl)c2ccc(S(=O)(=O)N[C@H]3CC[C@H](C(=O)N4CCOCC4)CC3)cc21 [Example 363, 3-chloro-2-cyclopropyl-1-methyl-N-((1r,4r)-4-(morpholine-4-carbonyl)cyclohexyl)-1H-indole-6-sulfonamide]
3 | 140 nM | CCN(C)C(=O)[C@H]1CC[C@H](NS(=O)(=O)c2ccc3cc(-c4ccc(CCC(=O)OC)cc4)n(C)c3c2)CC1 [Example 364, methyl 3-(4-(6-(N-((1r,4r)-4-(ethyl(methyl)carbamoyl)cyclohexyl)sulfamoyl)-1-methyl-1H-indol-2-yl)phenyl)propanoate]
4 | 410 nM | CCN(C)C(=O)[C@H]1CC[C@H](NS(=O)(=O)c2ccc3cc(-c4ccc(CCC(=O)O)cc4)n(C)c3c2)CC1 [Example 365, 3-(4-(6-(N-((1r,4r)-4-(ethyl(methyl)carbamoyl)cyclohexyl)sulfamoyl)-1-methyl-1H-indol-2-yl)phenyl)propanoic acid]
5 | 15 nM | CCN(C)C(=O)[C@H]1CC[C@H](NS(=O)(=O)c2ccc3c(Cl)c(-c4ccc(CCC(=O)O)cc4)n(C)c3c2)CC1 [Example 366, 3-(4-(3-chloro-6-(N-((1r,4r)-4-(ethyl(methyl)carbamoyl)cyclohexyl)sulfamoyl)-1-methyl-1H-indol-2-yl)phenyl)propanoic acid]
6 | 30 nM | CCN(C)C(=O)[C@H]1CC[C@H](NS(=O)(=O)c2ccc3c(Cl)c(-c4ccc(CCC(=O)OC)cc4)n(C)c3c2)CC1 [Example 367, methyl 3-(4-(3-chloro-6-(N-((1r,4r)-4-(ethyl(methyl)carbamoyl)cyclohexyl)sulfamoyl)-1-methyl-1H-indol-2-yl)phenyl)propanoate]
7 | 145 nM | Cn1c(C2CC2)cc2ccc(S(=O)(=O)N[C@H]3CC[C@H](C(=O)N4CCCC(C(C)(C)O)C4)CC3)cc21 (stereo partly drawn) [Example 368, 2-cyclopropyl-N-((1r,4r)-4-(3-(2-hydroxypropan-2-yl)piperidine-1-carbonyl)cyclohexyl)-1-methyl-1H-indole-6-sulfonamide]
8 | 180 nM | CCOC(=O)CCc1cc2ccc(S(=O)(=O)N[C@H]3CC[C@H](C(=O)N4CCCC4c4ccc(F)cc4)CC3)cc2n1C (stereo partly drawn) [Example 369, ethyl 3-(6-(N-((1r,4r)-4-(2-(4-fluorophenyl)pyrrolidine-1-carbonyl)cyclohexyl)sulfamoyl)-1-methyl-1H-indol-2-yl)propanoate]
9 | 270 nM | Cn1c(CCC(=O)O)cc2ccc(S(=O)(=O)N[C@H]3CC[C@H](C(=O)N4CCCC4c4ccc(F)cc4)CC3)cc21 (stereo partly drawn) [Example 370, 3-(6-(N-((1r,4r)-4-(2-(4-fluorophenyl)pyrrolidine-1-carbonyl)cyclohexyl)sulfamoyl)-1-methyl-1H-indol-2-yl)propanoic acid]
10 | 115 nM | CCOC(=O)CCc1c(Cl)c2ccc(S(=O)(=O)N[C@H]3CC[C@H](C(=O)N4CCCC4c4ccc(F)cc4)CC3)cc2n1C (stereo partly drawn) [Example 371, ethyl 3-(3-chloro-6-(N-((1r,4r)-4-(2-(4-fluorophenyl)pyrrolidine-1-carbonyl)cyclohexyl)sulfamoyl)-1-methyl-1H-indol-2-yl)propanoate]
11 | 45 nM | Cn1c(CCC(=O)O)c(Cl)c2ccc(S(=O)(=O)N[C@H]3CC[C@H](C(=O)N4CCCC4c4ccc(F)cc4)CC3)cc21 (stereo partly drawn) [Example 372, 3-(3-chloro-6-(N-((1r,4r)-4-(2-(4-fluorophenyl)pyrrolidine-1-carbonyl)cyclohexyl)sulfamoyl)-1-methyl-1H-indol-2-yl)propanoic acid]
12 | 75 nM | O=C([C@H]1CC[C@H](NS(=O)(=O)c2ccc3c(Cl)c(-c4ccccc4)[nH]c3c2)CC1)N1CCCCC1 [Example 373, 3-chloro-2-phenyl-N-((1r,4r)-4-(piperidine-1-carbonyl)cyclohexyl)-1H-indole-6-sulfonamide]
13 | 20 nM | Cn1c(-c2ccccc2)c(Cl)c2ccc(S(=O)(=O)N[C@H]3CC[C@H](C(=O)N4CCCCC4)CC3)cc21 [Example 374, 3-chloro-1-methyl-2-phenyl-N-((1r,4r)-4-(piperidine-1-carbonyl)cyclohexyl)-1H-indole-6-sulfonamide]
14 | 75 nM | O=C([C@H]1CC[C@H](NS(=O)(=O)c2ccc3cc(-c4ccccc4)[nH]c3c2)CC1)N1CCCCC1 [Example 375, 2-phenyl-N-((1r,4r)-4-(piperidine-1-carbonyl)cyclohexyl)-1H-indole-6-sulfonamide]
15 | 95 nM | Cn1c(-c2ccccc2)cc2ccc(S(=O)(=O)N[C@H]3CC[C@H](C(=O)N4CCCCC4)CC3)cc21 [Example 376, 1-methyl-2-phenyl-N-((1r,4r)-4-(piperidine-1-carbonyl)cyclohexyl)-1H-indole-6-sulfonamide]
16 | 10 nM | COC[C@@H](NC(=O)[C@H]1CC[C@H](NS(=O)(=O)c2ccc3cc(C4CC4)n(C)c3c2)CC1)c1ccccc1 [Example 377, (1r,4S)-4-(2-cyclopropyl-1-methyl-1H-indole-6-sulfonamido)-N-((S)-2-methoxy-1-phenylethyl)cyclohexanecarboxamide]
17 | 10 nM | Cn1c(-c2ccccc2)cc2ccc(S(=O)(=O)N[C@H]3CC[C@H](C(=O)N4CCCC(C(C)(C)O)C4)CC3)cc21 (stereo partly drawn) [Example 378, N-((1r,4r)-4-(3-(2-hydroxypropan-2-yl)piperidine-1-carbonyl)cyclohexyl)-1-methyl-2-phenyl-1H-indole-6-sulfonamide]
18 | 580 nM | COc1ccc(COC(=O)C2(C)CCC(NS(=O)(=O)c3ccc4c(ccn4C)c3)CC2)cc1 (stereo not drawn) [Example 379, 4-methoxybenzyl 1-methyl-4-(1-methyl-1H-indole-5-sulfonamido)cyclohexanecarboxylate]
19 | 75 nM | Cn1c(C2CC2)c(C#N)c2ccc(S(=O)(=O)N[C@H]3CC[C@H](C(=O)N4CCN[C@@H](C(F)(F)F)C4)CC3)cc21 [Example 380, 3-cyano-2-cyclopropyl-1-methyl-N-((1R,4r)-4-((R)-3-(trifluoromethyl)piperazine-1-carbonyl)cyclohexyl)-1H-indole-6-sulfonamide]
20 | 210 nM | Cn1c(C2CC2)c(C#N)c2ccc(S(=O)(=O)N[C@H]3CC[C@H](C(=O)N4CCCCC4)CC3)cc21 [Example 381, 3-cyano-2-cyclopropyl-1-methyl-N-((1r,4r)-4-(piperidine-1-carbonyl)cyclohexyl)-1H-indole-6-sulfonamide]
21 | 95 nM | C[C@H]1CCCCN1C(=O)[C@H]1CC[C@H](NS(=O)(=O)c2ccc3c(C#N)c(C4CC4)n(C)c3c2)CC1 [Example 382, 3-cyano-2-cyclopropyl-1-methyl-N-((1S,4r)-4-((S)-2-methylpiperidine-1-carbonyl)cyclohexyl)-1H-indole-6-sulfonamide]
22 | < 10 nM | CC(C)(O)C1CCCN(C(=O)[C@H]2CC[C@H](NS(=O)(=O)c3ccc4c(Cl)c(-c5ccccc5)[nH]c4c3)CC2)C1 (stereo partly drawn) [Example 383, 3-chloro-N-((1r,4r)-4-(3-(2-hydroxypropan-2-yl)piperidine-1-carbonyl)cyclohexyl)-2-phenyl-1H-indole-6-sulfonamide]
23 | < 10 nM | Cn1c(-c2ccccc2)c(Cl)c2ccc(S(=O)(=O)N[C@H]3CC[C@H](C(=O)N4CCCC(C(C)(C)O)C4)CC3)cc21 (stereo partly drawn) [Example 384, 3-chloro-N-((1r,4r)-4-(3-(2-hydroxypropan-2-yl)piperidine-1-carbonyl)cyclohexyl)-1-methyl-2-phenyl-1H-indole-6-sulfonamide]
24 | 920 nM | Cn1ccc2cc(S(=O)(=O)NC3CCC(C)(C(=O)N4CCOCC4)CC3)ccc21 (stereo not drawn) [Example 385, 1-methyl-N-(4-methyl-4-(morpholine-4-carbonyl)cyclohexyl)-1H-indole-5-sulfonamide]
25 | 25 nM | COC(=O)CCc1ccc(-c2cc3ccc(S(=O)(=O)N[C@H]4CC[C@H](C(=O)N5CCCC5c5ccc(F)cc5)CC4)cc3n2C)cc1 (stereo partly drawn) [Example 386, methyl 3-(4-(6-(N-((1r,4r)-4-(2-(4-fluorophenyl)pyrrolidine-1-carbonyl)cyclohexyl)sulfamoyl)-1-methyl-1H-indol-2-yl)phenyl)propanoate]
26 | < 10 nM | Cn1c(-c2ccc(CCC(=O)O)cc2)cc2ccc(S(=O)(=O)N[C@H]3CC[C@H](C(=O)N4CCCC4c4ccc(F)cc4)CC3)cc21 (stereo partly drawn) [Example 387, 3-(4-(6-(N-((1r,4r)-4-(2-(4-fluorophenyl)pyrrolidine-1-carbonyl)cyclohexyl)sulfamoyl)-1-methyl-1H-indol-2-yl)phenyl)propanoic acid]
27 | 110 nM | CC(C)OC(=O)C1(C)CCC(NS(=O)(=O)c2ccc3c(ccn3C)c2)CC1 (stereo not drawn) [Example 388, isopropyl 1-methyl-4-(1-methyl-1H-indole-5-sulfonamido)cyclohexanecarboxylate]
28 | 15 nM | Cn1c(C2CC2)c(C#N)c2ccc(S(=O)(=O)N[C@H]3CC[C@H](C(=O)N4CCC[C@@H]4C(F)(F)F)CC3)cc21 [Example 389, 3-cyano-2-cyclopropyl-1-methyl-N-((1R,4r)-4-((R)-2-(trifluoromethyl)pyrrolidine-1-carbonyl)cyclohexyl)-1H-indole-6-sulfonamide]
29 | 10 nM | Cn1c(C2CC2)c(C#N)c2ccc(S(=O)(=O)N[C@H]3CC[C@H](C(=O)N4CCCC4C(C)(C)C)CC3)cc21 (stereo partly drawn) [Example 390, N-((1r,4r)-4-(2-tert-butylpyrrolidine-1-carbonyl)cyclohexyl)-3-cyano-2-cyclopropyl-1-methyl-1H-indole-6-sulfonamide]
30 | 760 nM | CCOC(=O)C1(C)CCC(NS(=O)(=O)c2ccc3c(ccn3C)c2)CC1 (stereo not drawn) [Example 391, ethyl 1-methyl-4-(1-methyl-1H-indole-5-sulfonamido)cyclohexanecarboxylate]
